Measured values taken from patent publication US12569470B2, “Vasodilator and use thereof” (Bioradical Research Institute Corp., priority 2019, dated 2026).

Assays:
[1] = Storage stability in pH7.4-PBS or pure water at 37° C., residual rate by HPLC; assay type: physicochemical; details: for Residual rate (%) After 1 week / Residual rate (%) After 2 weeks: 200 μmol/1, 37° C., protected from light; for Residual rate (%) Initial concentration: 200 μmol/1, initial concentration (100%) being a reference
Method: The storage stability of edaravone, EMPO, ED2AP, and BisEp-C3 of the following formula (A) were examined. Specifically, edaravone, EMPO, ED2AP, and BisEp-C3 were dissolved in pH7.4-PBS or pure water so as to have a final concentration of 200 μmol/1 to prepare dissolved solutions of these compounds. When the compounds were difficult to be dissolved, they were dissolved in an ultrasonic cleaner with warm water at 40° C.
Under the measurement conditions for High-Performance Liquid Chromatography (HPLC) described below, the initial concentration was quantified, and then each solution was stored in an oven, which was protected from light, at 37° C., and quantified under the same measurement conditions after 1 week and 2 weeks, to determine residual rate (%) with the initial concentration (100%) being a reference.
Measurement Conditions for HPLC
High-Performance Liquid Chromatography (Shimadzu Corporation)
Data-processing software (Model: LCsolution Ver. 1.0, produced by Shimadzu Corporation)
Pump (Model: LC-20AD; produced by Shimadzu Corporation)
Column oven (Model: CTO-20A; produced by Shimadzu Corporation)
Autosampler (Model: SIL-20A; produced by Shimadzu Corporation)
PDA detector (Format: SPD-M20A)
Column: Atlantis dC18 5 μm (250×4.6 mm I.D.; produced by Waters)
Column temperature: 45° C.
Detection method: UV (254 nm)
Eluate A: pH3 buffer solution (adjusted to pH3 by adding phosphoric acid to 0.05M KH2PO4 aqueous solution)/methanol=90/10

rat neuroid cells B50 [2] = assay: Toxicity evaluation, cell viability by Alamar Blue; assay type: cell-based; details: 12.5, 25, 50, 100, or 200 μmol/1, 24 hours, FIG. 5
Method: Rat neuroid cells B50 were seeded in 12-well plates and then cultured. Edaravone (RC), ED2AP, or BisEp-C3 was added to each well so as to achieve a predetermined concentration (12.5, 25, 50, 100, or 200 μmol/1), and then incubated for 24 hours at 37° C. and 5% CO2. Cell viability in each well after the culture was measured using Alamar Blue.

[3] = system: superoxide produced by the neutrophils; assay: Superoxide production amount of PMA-stimulated neutrophils, CLA chemiluminescence; assay type: cell-based, human; details: 0-200 or 0-5,000 μmol/1, PMA 100 ng/ml, 30 minutes, control being 100, FIG. 2
Method: For examining the reactive oxygen-eliminating effect of the vasodilator of the present invention, the superoxide produced by the neutrophils when the neutrophils isolated from the peripheral blood of healthy individuals were stimulated with PMA (phorbor-12-myristate-13-acetate) was used. The superoxide production amount was measured by chemiluminescence using CLA (2-methyl-6-phenyl-3, 7-dihydroimidazo[1,2-α]pyrazine-3-one).
First, ED2AP, BisEp-C3, edaravone, BisEp-C1, or BisEp-C1 (H2) was added to a neutrophil of 4×10^5 cells per sample so as to achieve a predetermined concentration (0, 12.5, 25, 50, 100, or 200 μmol/1, or 0, 125, 250, 500, 1,250, 2,500 or 5,000 μmol/1) with […] of CLA, and then the cell suspension was seeded in flat-bottomed 96-well plates. The volume of the suspension was 200 μl/well, and phenol red-free Ca+, Mg+ HBSS was used as the solution. […] After the stimulation, a plate reader (Envision 2104 Multilabel Reader produced by Perkin Elmer Co., Ltd.) was used to measure the chemiluminescence value over time for 30 minutes with the PMA stimulation time being a reference. […] In addition, as a control, the superoxide production amount was measured in the same manner except that each compound was not added. The relative value of the superoxide production amount when each compound was added was calculated with the superoxide production amount of the control being 100.

rat neuroid cells B50 [4] = assay: Toxicity evaluation on byproducts after reaction with singlet oxygen; assay type: cell-based; details: byproducts after reaction with singlet oxygen, 50, 100, or 200 μmol/1, FIG. 6
Method: In a cell-free system, the RB was added to media (5% FCS-containing RPMI-1640 media) containing edaravone, ED2AP, and BisEp-C3 having a predetermined concentration (50, 100, or 200 μmol/1) and then irradiated with LED (G-LED) at 525 nm to generate singlet oxygen, whereby reacting each compound with singlet oxygen. The cell viability was measured in the same manner as in Example 7(1), except that the culture solution after the reaction was used as a medium of the neuroid cell B50. As a negative control (NC), the cell viability was measured in the same manner except that each compound and […] were not added in the cell-free system. Further, as a control (RB), the cell viability was measured in the same manner except that each compound was not added and only […] was added in the cell-free system.

[5] = system: superoxide produced by the neutrophils; assay: Superoxide-eliminating ability of PBS solutions before and after storage for 10 days; assay type: cell-based, human; details: PBS solution stored for 10 days versus immediately after preparation, 0-200 μmol/1, FIG. 4
Method: First, ED2AP, BisEp-C3, edaravone, BisEp-C1, or BisEp-C1 (H2) was added to a neutrophil of 4×10^5 cells per sample so as to achieve a predetermined concentration (0, 12.5, 25, 50, 100, or 200 μmol/1, or 0, 125, 250, 500, 1,250, 2,500 or 5,000 μmol/1) with […] of CLA, and then the cell suspension was seeded in flat-bottomed 96-well plates. The volume of the suspension was 200 μl/well, and phenol red-free Ca+, Mg+ HBSS was used as the solution. In addition, the neutrophil was stimulated by adding PMA so as to achieve a concentration of 100 ng/ml. After the stimulation, a plate reader (Envision 2104 Multilabel Reader produced by Perkin Elmer Co., Ltd.) was used to measure the chemiluminescence value over time for 30 minutes with the PMA stimulation time being a reference. The measurement interval was 30 seconds. […] In addition, as a control, the superoxide production amount was measured in the same manner except that each compound was not added. The relative value of the superoxide production amount when each compound was added was calculated with the superoxide production amount of the control being 100.
PBS solutions of ED2AP, BisEp-C3, and edaravone were prepared in the same manner as in Example 2 and stored for 10 days. […] Then, the relative value of the superoxide production amount of each sample was calculated with the superoxide production amount of the sample of 0 μmol/1 being 100.

CC1=NN(c2ccccc2)C(=O)/C1=C/C=C/c1c(C)nn(-c2ccccc2)c1O [ED2AP, 2,4-dihydro-4-[3-(5-hydroxy-3-methyl-1-phenyl-1H-pyrazol-4-yl)-2-propen-1-ylidene]-5-methyl-2-phenyl-3H-pyrazol-3-one]
Residual rate (%) After 1 week ([1]; Pure water): 96.1%
Residual rate (%) After 2 weeks ([1]; Pure water): 89.8%
Residual rate (%) Initial concentration ([1]; Pure water): 100%
Residual rate (%) After 1 week ([1]; pH 7.4-PBS): 96.2%
Residual rate (%) After 2 weeks ([1]; pH 7.4-PBS): 91.3%
Residual rate (%) Initial concentration ([1]; pH 7.4-PBS): 100%
cell viability (cytotoxicity) (rat neuroid cells B50 [2]): not cytotoxic at any concentration
relative value of the superoxide production amount [3]: remarkably suppressed superoxide production amount
cell viability (cytotoxicity of byproducts) (rat neuroid cells B50 [4]): not cytotoxic at any concentration
superoxide-eliminating ability after storage [5]: maintained the superoxide-eliminating ability equivalent to that immediately after preparation

CCN1N=C(C)/C(=C\C=C\c2c(C)nn(CC)c2O)C1=O [BisEp-C3, 2,4-dihydro-4-[3-(1-ethyl-5-hydroxy-3-methyl-1H-pyrazol-4-yl)-2-propen-1-ylidene]-2-ethyl-5-methyl-3H-pyrazol-3-one]
Residual rate (%) After 1 week ([1]; Pure water): 99.4%
Residual rate (%) After 2 weeks ([1]; Pure water): 88.5%
Residual rate (%) Initial concentration ([1]; Pure water): 100%
Residual rate (%) After 1 week ([1]; pH 7.4-PBS): 98.7%
Residual rate (%) After 2 weeks ([1]; pH 7.4-PBS): 93.6%
Residual rate (%) Initial concentration ([1]; pH 7.4-PBS): 100%
cell viability (cytotoxicity) (rat neuroid cells B50 [2]): not cytotoxic at any concentration
relative value of the superoxide production amount [3]: remarkably suppressed superoxide production amount
cell viability (cytotoxicity of byproducts) (rat neuroid cells B50 [4]): not cytotoxic at any concentration
superoxide-eliminating ability after storage [5]: maintained the superoxide-eliminating ability equivalent to that immediately after preparation
